Like-named read-outs stand apart in the source and are kept apart here.
What was measured:
hOCT1 [1] = target: T1, hOCT1 (Homo sapiens, UniProt O15245); experiment: [3H]MPP+ uptake inhibition assay, HEK293 cells stably expressing hOCT1; type: cell-based; settings: for Effect on substrate uptake by hOCT1 (in words): [3H]MPP+ uptake, HEK293 hOCT1
T1 construct: expressed in transfected cells
T1 sequence (O15245 1-554): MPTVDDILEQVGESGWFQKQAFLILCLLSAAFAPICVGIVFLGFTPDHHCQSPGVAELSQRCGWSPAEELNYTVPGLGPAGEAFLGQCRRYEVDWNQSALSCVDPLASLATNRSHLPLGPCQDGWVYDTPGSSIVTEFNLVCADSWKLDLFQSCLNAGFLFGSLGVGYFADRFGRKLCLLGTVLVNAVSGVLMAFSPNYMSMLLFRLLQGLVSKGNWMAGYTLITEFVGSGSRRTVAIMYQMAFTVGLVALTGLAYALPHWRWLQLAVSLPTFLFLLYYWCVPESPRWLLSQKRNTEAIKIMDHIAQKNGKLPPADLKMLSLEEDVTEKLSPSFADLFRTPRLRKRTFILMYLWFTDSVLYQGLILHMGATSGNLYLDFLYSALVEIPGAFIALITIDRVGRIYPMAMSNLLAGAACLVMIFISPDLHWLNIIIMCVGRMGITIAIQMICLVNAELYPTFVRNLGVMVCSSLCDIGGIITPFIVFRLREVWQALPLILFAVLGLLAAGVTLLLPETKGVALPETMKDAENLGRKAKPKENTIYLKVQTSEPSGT
Method: (§1) HEK293 cells were transfected with a plasmid, encoding the transporter of interest and an N-terminal YFP-tag, carried out using jetPRIME ^© (Polyplus Transfection; (VWR International GmbH, Vienna, Austria)) reagent (for a 10 cm dish with 1–2 × 10^6 cells in 10 mL serum containing medium at 60–80% confluency: 500 μ L jetPRIME ^© buffer, 10 μ g DNA and 20 μ L jetPRIME ^© reagent) and selection pressure maintained for two weeks [2, 54, 55]. Subsequently, 500,000 cells were FACS-sorted (fluorescence-activated cell sorting) according to expression level to establish cell lines stably expressing the protein of interest. […] For uptake inhibition assays, cells were cultured at a subconfluent (80–90% density) state in high-glucose Dulbecco’s Modified Eagle Medium (DMEM ), enriched with 10% heat-inactivated Fetal Bovine Serum (FBS) and penicillin/streptomycin (PS; 100 U × 100 mL ^−1 , each). Selection pressure was maintained by the addition of geneticin (50 mg × mL ^−1 ) at 37 ^∘ C and 5% CO 2 in a humidified incubator. At a density of 60,000 cells per well, HEK293 cells expressing the respective transporter were seeded onto poly-D-lysine-coated wells 24 h prior to uptake inhibition experiments in a final volume of 200 μ L per well.
(§2) Prior to the addition of the respective compounds, DMEM was removed from all wells and replaced with 200 μ L of Krebs-HEPES-buffer (KHB; 10 mM HEPES, 120 mM NaCl, 3 mM KCl, 2 mM CaCl 2 , 2 mM MgSO 4 and 20 mM D-glucose, pH adjusted to 7.3) at room temperature. Cells were exposed to a pre-incubation solution containing the compound of interest in the respective concentration (dissolved in Krebs-HEPES-buffer) for 10 min with a total volume of 50 μ L, which was then replaced with a 50 μ L uptake solution containing 0.05 μ M of tritiated 1-methyl-4-phenylpyridinium ([ ^3 H]MPP ^+ ) as substrate, and the compound of interest in respective concentrations, for 10 minutes each. Finally, uptake was terminated by washing with 200 μ L of ice-cold (4 ^∘ C) KHB, after which cells were lysed with 200 μ L of 1% sodium dodecyl sulphate (SDS). After transferring the solution of each well into 6 mL counting vials containing 2 mL of scintillation cocktail, the vials were measured with a beta-scintillation counter for quantification of the uptake of tritiated substrate. […] To obtain specific data, non-specific uptake was assessed in the presence of 100 μ M D22 and subtracted from the total data. The 100% values were defined as uptake in the absence of a tested substance, defining maximal uptake capacity. Inhibitions of the compound of interest were described as a percentage of the maximal uptake capacity.
(§3) Half-maximal inhibitory concentration ( IC50 ) values of each substance were calculated and plotted using GraphPad Prism 8.4.3 (GraphPad Software Inc., San Diego, CA, USA). IC50 was determined by non-linear regression, solving the equation Y=Bottom+(Top−Bottom)/(1+10^X−LogEC50) . […] All data stem from a minimum of three separate experiments (n≥ 3) executed in triplicates and are shown as mean ± SD.

hOCT2 [2] = target: T2, hOCT2 (Homo sapiens, UniProt O15244); experiment: [3H]MPP+ uptake inhibition assay, HEK293 cells stably expressing hOCT2; type: cell-based; settings: for Effect on substrate uptake by hOCT2 (in words): [3H]MPP+ uptake, HEK293 hOCT2
T2 construct: expressed in transfected cells
T2 sequence (O15244 1-555): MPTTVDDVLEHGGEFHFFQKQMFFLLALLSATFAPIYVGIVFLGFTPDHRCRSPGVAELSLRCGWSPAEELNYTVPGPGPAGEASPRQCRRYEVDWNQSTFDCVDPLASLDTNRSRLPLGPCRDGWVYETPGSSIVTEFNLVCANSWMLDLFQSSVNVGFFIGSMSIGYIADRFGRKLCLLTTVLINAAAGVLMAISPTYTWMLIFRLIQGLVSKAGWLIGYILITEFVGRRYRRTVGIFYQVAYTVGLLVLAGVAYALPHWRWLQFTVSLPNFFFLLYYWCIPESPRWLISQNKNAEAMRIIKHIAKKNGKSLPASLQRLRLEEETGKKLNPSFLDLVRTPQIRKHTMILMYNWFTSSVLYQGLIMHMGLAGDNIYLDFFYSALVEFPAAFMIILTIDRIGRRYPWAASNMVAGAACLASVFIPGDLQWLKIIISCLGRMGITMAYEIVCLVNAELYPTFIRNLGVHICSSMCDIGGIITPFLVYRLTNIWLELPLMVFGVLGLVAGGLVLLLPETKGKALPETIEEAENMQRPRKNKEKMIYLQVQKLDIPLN
Method: as §1, §2, §3

hOCT3 [3] = target: T3, hOCT3 (Homo sapiens, UniProt O75751); experiment: [3H]MPP+ uptake inhibition assay, HEK293 cells stably expressing hOCT3; type: cell-based; settings: for Effect on substrate uptake by hOCT3 (in words): [3H]MPP+ uptake, HEK293 hOCT3
T3 construct: expressed in transfected cells
T3 sequence (O75751 1-556): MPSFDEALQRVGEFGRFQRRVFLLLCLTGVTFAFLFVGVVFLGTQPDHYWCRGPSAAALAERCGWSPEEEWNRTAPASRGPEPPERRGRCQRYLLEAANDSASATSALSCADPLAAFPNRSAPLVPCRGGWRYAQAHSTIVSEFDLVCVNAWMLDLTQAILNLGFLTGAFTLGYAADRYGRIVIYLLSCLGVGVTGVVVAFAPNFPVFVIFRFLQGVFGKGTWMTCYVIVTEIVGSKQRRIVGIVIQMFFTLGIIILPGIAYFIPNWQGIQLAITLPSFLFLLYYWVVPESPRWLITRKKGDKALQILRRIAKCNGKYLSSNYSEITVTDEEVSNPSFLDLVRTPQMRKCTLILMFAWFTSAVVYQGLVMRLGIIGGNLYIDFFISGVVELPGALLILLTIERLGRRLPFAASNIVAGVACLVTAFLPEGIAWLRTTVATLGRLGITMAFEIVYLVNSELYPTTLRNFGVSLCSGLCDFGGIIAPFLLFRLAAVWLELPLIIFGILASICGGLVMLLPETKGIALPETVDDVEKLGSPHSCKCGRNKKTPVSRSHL
Method: as §1, §2, §3

hPMAT = target: T4, hPMAT (Homo sapiens, UniProt Q7RTT9); experiment: [3H]MPP+ uptake inhibition assay, HEK293 cells stably expressing hPMAT; type: cell-based; settings: for Effect on substrate uptake by hPMAT (in words): [3H]MPP+ uptake, HEK293 hPMAT
T4 construct: expressed in transfected cells
T4 sequence (Q7RTT9 1-530): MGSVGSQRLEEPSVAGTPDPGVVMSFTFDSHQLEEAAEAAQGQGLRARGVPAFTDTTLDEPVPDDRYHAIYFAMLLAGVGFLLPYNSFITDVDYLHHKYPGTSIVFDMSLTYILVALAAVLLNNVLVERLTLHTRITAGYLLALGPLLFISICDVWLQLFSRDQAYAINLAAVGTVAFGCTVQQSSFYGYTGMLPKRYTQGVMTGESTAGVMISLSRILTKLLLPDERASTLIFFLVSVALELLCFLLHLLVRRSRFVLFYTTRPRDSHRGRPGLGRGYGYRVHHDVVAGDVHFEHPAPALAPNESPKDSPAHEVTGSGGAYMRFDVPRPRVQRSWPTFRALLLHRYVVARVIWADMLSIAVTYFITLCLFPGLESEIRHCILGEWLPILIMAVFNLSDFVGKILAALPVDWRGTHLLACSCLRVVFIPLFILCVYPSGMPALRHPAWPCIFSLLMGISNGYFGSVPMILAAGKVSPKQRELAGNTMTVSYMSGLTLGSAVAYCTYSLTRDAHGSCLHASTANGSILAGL
Method: as §1, §2, §3

hOCT1 [4] = target: T1, hOCT1; settings: Table S1, supplementary reference list, cited from earlier work; for IC50: read-out: IC50 literature hOCT1; for Ki: read-out: IC50 literature hOCT1 (Ki), Ki values
hOCT2 [5] = target: T2, hOCT2; settings: read-out: IC50 literature hOCT2 (Ki); Table S1; Ki values; supplementary reference list; cited from earlier work
hOCT3 [6] = target: T3, hOCT3; settings: read-out: IC50 literature hOCT3 (Ki); Table S1; Ki values; supplementary reference list; cited from earlier work
[7] = HEK293 stably expressing hOCT3, 0.05 μM [3H]MPP+, 10 min pre-incubation, 10 min uptake, brackets in Table S1 = 95%-CI, n.s. = non-significant
[8] = HEK293 stably expressing hPMAT, 0.05 μM [3H]MPP+, 10 min pre-incubation, 10 min uptake, brackets in Table S1 = 95%-CI, n.s. = non-significant
[9] = HEK293 stably expressing hOCT2, 0.05 μM [3H]MPP+, 10 min pre-incubation, 10 min uptake, brackets in Table S1 = 95%-CI, n.s. = non-significant
[10] = HEK293 stably expressing hOCT1, 0.05 μM [3H]MPP+, 10 min pre-incubation, 10 min uptake, brackets in Table S1 = 95%-CI, n.s. = non-significant
[11] = HEK293 stably expressing hOCT1, 0.05 μM [3H]MPP+, 10 min pre-incubation, 10 min uptake, brackets in Table S1 = 95%-CI, n.s. = non-significant, read-out: IC50 hOCT1 (inhibitory potency, [3H]MPP+ uptake)
[12] = HEK293 stably expressing hOCT2, 0.05 μM [3H]MPP+, 10 min pre-incubation, 10 min uptake, brackets in Table S1 = 95%-CI, n.s. = non-significant, read-out: IC50 hOCT2 (inhibitory potency, [3H]MPP+ uptake)
[13] = HEK293 stably expressing hPMAT, 0.05 μM [3H]MPP+, 10 min pre-incubation, 10 min uptake, brackets in Table S1 = 95%-CI, n.s. = non-significant, read-out: IC50 hPMAT (inhibitory potency, [3H]MPP+ uptake)

Row | Compound | IC50 (hOCT1 [1]) | IC50 (hOCT2 [2]) | IC50 hOCT3 (inhibitory potency, [3H]MPP+ uptake) (hOCT3 [3]; [7]) | Effect on substrate uptake by hOCT3 (in words) (hOCT3 [3]) | Effect on substrate uptake by hPMAT (in words) (hPMAT) | IC50 hPMAT (inhibitory potency, [3H]MPP+ uptake) (hPMAT; [8]) | also measured
1 | COc1cccc(C2(O)CCCCC2CN(C)C)c1 (centres unmarked) [Tramadol, tramadol] | 5.6 µM | 64.1 µM | n.s. | No interaction | fails to fully inhibit |  | Effect on substrate uptake by hOCT2 (in words) (hOCT2 [2]): fails to fully inhibit; IC50 (hPMAT): 74.2 µM; IC50 (hOCT1 [4]): 30 µM
2 | COC(=O)C(c1ccccc1)C1CCCCN1 (centres unmarked) [Methylphenidate, methylphenidate] | 0.36 µM | 28.8 µM | n.s. |  |  | n.s. | 
3 | CCC[C@H](C(=O)c1ccccc1)N1CCCC1 [R- α -PVP, R- α -pyrrolidinovalerophenone] | 2.15 µM | 13.1 µM |  |  | increased uptake of substrate | n.s. | IC50 (hOCT3 [3]): 1020 µM
4 | CN(C)CCc1c[nH]c2cccc(O)c12 [Psilocin, psilocin] | 63.5 µM |  | n.s. | did not inhibit | did not inhibit |  | Effect on substrate uptake by hOCT1 (in words) (hOCT1 [1]): did not inhibit; IC50 hOCT2 (inhibitory potency, [3H]MPP+ uptake) (hOCT2 [2]; [9]): n.s.; Effect on substrate uptake by hOCT2 (in words) (hOCT2 [2]): did not inhibit; IC50 (hPMAT): 698 µM
5 | CCC[C@@H](C(=O)c1ccccc1)N1CCCC1 [S- α -PVP, S- α -pyrrolidinovalerophenone] | 1.07 µM | 15 µM |  |  | increased uptake of substrate | n.s | IC50 (hOCT3 [3]): 457 µM
6 | CNC1(c2ccccc2F)CCCCC1=O (centres unmarked) [2-Fluoro-deschloroketamine, 2-fluoro-deschloroketamine] | 14.1 µM | 19.2 µM |  |  |  | n.s. | IC50 (hOCT3 [3]): 265 µM
7 | CCC1(c2ccccc2)C(=O)NC(=O)NC1=O [Phenobarbital, phenobarbital] |  |  | n.s. | not interacting | not interacting |  | IC50 hOCT1 (inhibitory potency, [3H]MPP+ uptake) (hOCT1 [1]; [10]): n.s.; Effect on substrate uptake by hOCT1 (in words) (hOCT1 [1]): increased uptake of substrate; IC50 hOCT2 (inhibitory potency, [3H]MPP+ uptake) (hOCT2 [2]; [9]): n.s.; Effect on substrate uptake by hOCT2 (in words) (hOCT2 [2]): increased uptake of substrate; IC50 (hPMAT): 1030 µM
8 | CNC(C)Cc1ccc2c(c1)OCO2 (centres unmarked) [MDMA, 3,4-methylenedioxymethamphetamine] | 1.14 µM | 2.71 µM |  | not inhibiting uptake |  |  | IC50 (hOCT3 [3]): 154 µM; IC50 (hPMAT): 7.77 µM; Ki (hOCT1 [4]): 24.2 ± 9.2 µM; Ki (hOCT2 [5]): 1.63 ± 0.62 µM; Ki (hOCT3 [6]): 73.6 ± 50.3 µM
9 | NC(=O)C[S+]([O-])C(c1ccccc1)c1ccccc1 (centres unmarked) [Modafinil, modafinil] |  |  | n.s. | did not interact | did not interact | n.s. | IC50 hOCT1 (inhibitory potency, [3H]MPP+ uptake) (hOCT1 [1]; [10]): n.s.; Effect on substrate uptake by hOCT1 (in words) (hOCT1 [1]): did not interact; IC50 hOCT2 (inhibitory potency, [3H]MPP+ uptake) (hOCT2 [2]; [9]): n.s.; Effect on substrate uptake by hOCT2 (in words) (hOCT2 [2]): did not interact
10 | CN(C)CCC[C@]1(c2ccc(F)cc2)OCc2cc(C#N)ccc21 [R-Citalopram, R-citalopram] |  |  |  |  |  |  | IC50 (hOCT1 [1]; [11]): 5.11 µM; IC50 (hOCT2 [2]; [12]): 46.6 µM; IC50 (hPMAT; [13]): 58.3 µM
11 | CCN1/C(=C/c2ccc3ccccc3[n+]2CC)C=Cc2ccccc21 [Decynium-22] |  |  |  |  |  |  | IC50 (hOCT1 [1]; [11]): 2.66 µM; IC50 (hOCT2 [2]; [12]): 4.56 µM; IC50 (hOCT3 [3]; HEK293 stably expressing hOCT3, 0.05 μM [3H]MPP+, 10 min pre-incubation, 10 min uptake, brackets in Table S1 = 95%-CI, n.s. = non-significant, read-out: IC50 hOCT3 (inhibitory potency, [3H]MPP+ uptake)): 0.16 µM; IC50 (hPMAT; [13]): 0.35 µM
12 | COC(=O)[C@H]1[C@@H](OC(=O)c2ccccc2)C[C@@H]2CC[C@H]1N2C [Cocaine, cocaine] | 6.66 µM | 27.8 µM | n.s. |  |  | n.s. | Ki (hOCT1 [4]): 85 ± 22 µM; Ki (hOCT2 [5]): 113 ± 21 µM
13 | CN(C)C[C@H]1CCCC[C@]1(O)c1cccc(O)c1 [O-Desmethyltramadol, O-desmethyltramadol] | 24.2 µM | 372 µM | n.s. | No interaction |  | n.s. | IC50 (hOCT1 [4]): 172 µM
14 | CN(C)CCC[C@@]1(c2ccc(F)cc2)OCc2cc(C#N)ccc21 [S-Citalopram, S-citalopram] |  |  |  |  |  |  | IC50 (hOCT1 [1]; [11]): 7.15 µM; IC50 (hOCT2 [2]; [12]): 59.9 µM; IC50 (hPMAT; [13]): 160 µM

— article PMC8657792, “Interaction Profiles of Central Nervous System Active Drugs at Human Organic Cation Transporters 1–3 and Human Plasma Membrane Monoamine Transporter” (International Journal of Molecular Sciences, 2021)
